The source of these data is US20240270701A1, “BETA ADRENERGIC AGONIST AND METHODS OF USING THE SAME” (Curasen Therapeutics, Inc., priority 2021, published 2024).

Read-outs that look alike come from different tables or passages of the source.

One experiment concerns the target T1, B2-AR (Homo sapiens, UniProt P07550).
T1 construct: expressed in transfected cells; host or cells: CHO-K1
The experiment is described as follows: cAMP Gs dynamic HTRF assay, cells expressing beta-adrenergic receptor (CHO-K1), B2-AR. It is filed as cell-based. The following applies: for EC50: read-out: pEC50 [B2-AR] (converted); for Emax: read-out: Emax (% iso) (%) [B2-AR]. (In TR-FRET formats the signal depends on donor and acceptor labels being close together.)

Another experiment addresses T2, B1-AR (Homo sapiens, UniProt P08588).
T2 construct: expressed in transfected cells; host or cells: CHO-K1
Description: cAMP Gs dynamic HTRF assay, cells expressing beta-adrenergic receptor (CHO-K1), B1-AR. Type of experiment: cell-based. To be noted: for EC50: read-out: pEC50 [B1-AR] (converted); for Emax: read-out: Emax (% iso) (%) [B1-AR].

[1] abbreviates: CHO-K1 cells, relative to full agonist isoproterenol.
Where [2] appears, read: relative to full agonist isoproterenol.
The mark [3] stands for this setting: CHO-K1, CHO-K1 cells, relative to full agonist isoproterenol.

T1 sequence (P07550 whole entry, species assumed): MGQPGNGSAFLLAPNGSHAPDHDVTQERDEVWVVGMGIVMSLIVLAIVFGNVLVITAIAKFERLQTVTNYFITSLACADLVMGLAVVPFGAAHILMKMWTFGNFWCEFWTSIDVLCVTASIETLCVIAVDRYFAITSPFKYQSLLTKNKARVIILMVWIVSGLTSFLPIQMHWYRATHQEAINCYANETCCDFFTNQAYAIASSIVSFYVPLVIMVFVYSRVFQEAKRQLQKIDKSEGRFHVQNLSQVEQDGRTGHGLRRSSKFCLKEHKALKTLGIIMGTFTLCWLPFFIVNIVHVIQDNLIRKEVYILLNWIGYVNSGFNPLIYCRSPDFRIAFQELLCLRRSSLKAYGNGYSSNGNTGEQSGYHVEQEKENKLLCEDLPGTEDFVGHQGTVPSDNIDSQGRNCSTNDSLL
T2 sequence (P08588 whole entry, species assumed): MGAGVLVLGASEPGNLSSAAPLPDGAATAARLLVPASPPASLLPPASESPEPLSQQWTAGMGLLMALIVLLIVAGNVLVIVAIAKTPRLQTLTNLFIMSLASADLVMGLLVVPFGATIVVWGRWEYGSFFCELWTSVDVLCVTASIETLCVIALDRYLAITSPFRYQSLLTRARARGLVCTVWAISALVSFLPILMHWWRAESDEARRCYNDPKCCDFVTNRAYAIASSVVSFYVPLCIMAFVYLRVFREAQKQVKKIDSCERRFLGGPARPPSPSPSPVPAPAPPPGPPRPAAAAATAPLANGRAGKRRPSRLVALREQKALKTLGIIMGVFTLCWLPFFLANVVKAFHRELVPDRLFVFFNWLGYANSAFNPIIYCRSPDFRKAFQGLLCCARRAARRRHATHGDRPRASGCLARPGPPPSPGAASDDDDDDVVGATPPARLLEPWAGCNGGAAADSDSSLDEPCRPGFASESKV

Regarding `COc1ccc(C[C@@H](C)NC[C@H](O)c2ccc(F)c3[nH]ncc23)cc1` [I-17], the EC50 at B2-AR (CHO-K1 cells, cAMP HTRF) is < 10 nM; at B1-AR (cAMP HTRF), < 10 nM. Further, the Emax on B2-AR (setting [1]) and on B1-AR (setting [2]) was > 90% each time.

Regarding `O[C@@H](CNCC1CC1)c1ccc(F)c2[nH]ncc12` [I-75], the figures for the maximal effect (Emax) on B2-AR (setting [3]) and at B1-AR (setting [2]) were > 90% and 70 to 90%, respectively. The EC50 on B2-AR (CHO-K1 cells, cAMP HTRF) was < 10 nM; on B1-AR (cAMP HTRF), < 10 nM.

As for `Cc1n[nH]c2cccc([C@@H](O)CNC3CCC3)c12` [I-166], the EC50 at B2-AR (CHO-K1 cells, cAMP HTRF) is 10 to 100 nM; on B1-AR (cAMP HTRF) it was 100 to 1000 nM. For the same compound, the values for the Emax on B2-AR (setting [1]) and on B1-AR (setting [2]) were 70 to 90% and 50 to 70%, respectively.

With `Cc1ncccc1[C@@H](O)CNC(C)C` [I-184], the maximum response (Emax) at B2-AR (setting [3]) and at B1-AR (setting [2]) was 70 to 90% throughout. For the same compound, the EC50 at B2-AR (CHO-K1 cells, cAMP HTRF) is 100 to 1000 nM; at B1-AR (cAMP HTRF) it was > 1000 nM.

Consider `Cc1n[nH]c2cccc([C@@H](O)CNCC(C)C)c12` [I-174], for which the EC50 at B2-AR (CHO-K1 cells, cAMP HTRF) is 100 to 1000 nM; at B1-AR (cAMP HTRF), > 1000 nM. Besides, the Emax (commonly the size of the effect at its maximum, as opposed to the concentration needed) at B2-AR (setting [1]) was 50 to 70%; at B1-AR (setting [2]), 70 to 90%.

Consider `Cc1ccc2cc([C@@H](O)CNC(C)(C)C)ccc2n1` [I-82], for which the EC50 at B2-AR (CHO-K1 cells, cAMP HTRF) was > 1000 nM; on B1-AR (cAMP HTRF), > 1000 nM. In addition, the Emax at B2-AR (setting [1]) and at B1-AR (setting [2]) was < 50% throughout.

With `Cc1nc(N)c(Cl)cc1[C@@H](CO)NC1CC(F)(F)C1` [I-186], the EC50 on B2-AR (CHO-K1 cells, cAMP HTRF) is > 1000 nM; at B1-AR (cAMP HTRF), > 1000 nM. Besides, the maximum response (Emax) at B2-AR (setting [1]) and at B1-AR (setting [2]) was < 50% in each case.

As to `CC(C)(C)NC[C@@H](O)c1cncc2[nH]ncc12` [I-66], the Emax at B2-AR (setting [3]) was > 90%; on B1-AR (setting [2]) it was 70 to 90%. The EC50 is 100 to 1000 nM at B2-AR (CHO-K1 cells, cAMP HTRF) and > 1000 nM on B1-AR (cAMP HTRF).

Take `CC(C)c1cc([C@@H](O)CNC(C)(C)C)c2cn[nH]c2c1` [I-104]: the Emax on B2-AR (setting [3]) and at B1-AR (setting [2]) was 70 to 90% in each case. Besides, the EC50 at B2-AR (CHO-K1 cells, cAMP HTRF) is 100 to 1000 nM; on B1-AR (cAMP HTRF), > 1000 nM.

For `CC(C)CNC[C@H](O)c1cccc2[nH]nc(Cl)c12` [I-99], the EC50 at B2-AR (CHO-K1 cells, cAMP HTRF) was 10 to 100 nM; on B1-AR (cAMP HTRF), 100 to 1000 nM. For the same compound, the Emax on B2-AR (setting [1]) and on B1-AR (setting [2]) was 70 to 90% in each case.

Consider `CC(C)(C)CNC[C@H](O)c1cc(C#N)cc2[nH]ncc12` [I-69], for which the Emax at B2-AR (setting [3]) is 70 to 90%; at B1-AR (setting [2]), 50 to 70%. In addition, the EC50 was 100 to 1000 nM at B2-AR (CHO-K1 cells, cAMP HTRF) and > 1000 nM on B1-AR (cAMP HTRF).

For `CC1C(=O)Nc2cccc([C@@H](O)CNC(C)(C)C)c21` (stereo partly drawn) [I-91], the EC50 on B2-AR (CHO-K1 cells, cAMP HTRF) is > 1000 nM; at B1-AR (cAMP HTRF), > 1000 nM. For the same compound, the Emax at B2-AR (setting [1]) and on B1-AR (setting [2]) was < 50% each time.

In the case of `CC(C)(C)C(C)(C)NC[C@H](O)c1cccc2[nH]ncc12` [I-7], the Emax on B2-AR (setting [3]) and at B1-AR (setting [2]) was > 90% each time. The EC50 at B2-AR (CHO-K1 cells, cAMP HTRF) is < 10 nM; on B1-AR (cAMP HTRF) it was 100 to 1000 nM.

Turning to `O[C@@H](CNC1CCC1)c1cccc2[nH]nc(Cl)c12` [I-97], the EC50 is < 10 nM at B2-AR (CHO-K1 cells, cAMP HTRF) and 10 to 100 nM on B1-AR (cAMP HTRF). Further, the Emax at B2-AR (setting [1]) is > 90%; at B1-AR (setting [2]), 70 to 90%.

For `CCC(C)(C)NC[C@H](O)c1cccnc1C` [I-165], the maximum response (Emax) on B2-AR (setting [3]) and at B1-AR (setting [2]) was 70 to 90% each time. The EC50 was 100 to 1000 nM at B2-AR (CHO-K1 cells, cAMP HTRF) and 100 to 1000 nM on B1-AR (cAMP HTRF).

On to `CC1(NC[C@H](O)c2cccc3[nH]ncc23)CCC1` [I-128], for which the EC50 was < 10 nM at B2-AR (CHO-K1 cells, cAMP HTRF) and < 10 nM on B1-AR (cAMP HTRF). Moreover, the maximal effect (Emax) on B2-AR (setting [1]) and at B1-AR (setting [2]) was > 90% each time.

Turning to `Cc1nc(N)c(F)cc1[C@@H](CO)NC(C)(C)C` [I-179], the EC50 on B2-AR (CHO-K1 cells, cAMP HTRF) is > 1000 nM; at B1-AR (cAMP HTRF), > 1000 nM. The Emax on B2-AR (setting [1]) and at B1-AR (setting [2]) was < 50% in each case.

As for `COc1cc([C@@H](O)CNC(C)(C)C)c2cn[nH]c2c1F` [I-59], the Emax on B2-AR (setting [3]) and on B1-AR (setting [2]) was < 50% throughout. Moreover, the EC50 at B2-AR (CHO-K1 cells, cAMP HTRF) is 10 to 100 nM; at B1-AR (cAMP HTRF) it was 100 to 1000 nM.

On to `Cc1n[nH]c2cccc([C@@H](O)CNC3(C)CC3)c12` [I-169], for which the EC50 on B2-AR (CHO-K1 cells, cAMP HTRF) is 10 to 100 nM; on B1-AR (cAMP HTRF) it was 100 to 1000 nM. The Emax on B2-AR (setting [1]) and at B1-AR (setting [2]) was 70 to 90% each time.

For the compound `CC[C@H](C)NC[C@H](O)c1cccc2[nH]ncc12` [I-24], the EC50 is < 10 nM at B2-AR (CHO-K1 cells, cAMP HTRF) and 10 to 100 nM on B1-AR (cAMP HTRF). Further, the Emax at B2-AR (setting [1]) and on B1-AR (setting [2]) was > 90% in each case.

Turning to `CC(C)(NC[C@H](O)c1cccc2[nH]nc(F)c12)C1CC1` [I-20], the Emax at B2-AR (setting [3]) and at B1-AR (setting [2]) was > 90% throughout. Moreover, the EC50 is < 10 nM on B2-AR (CHO-K1 cells, cAMP HTRF) and < 10 nM at B1-AR (cAMP HTRF).

For `Cn1ccc(CNC[C@H](O)c2cccc3[nH]nc(F)c23)n1` [I-78], the EC50 is 100 to 1000 nM on B2-AR (CHO-K1 cells, cAMP HTRF) and 100 to 1000 nM at B1-AR (cAMP HTRF). For the same compound, the results for the Emax at B2-AR (setting [1]) and at B1-AR (setting [2]) were > 90% and 70 to 90%, respectively.

Take `CC(C)(C)NC[C@H](O)c1cc(OC(F)F)cc2[nH]ncc12` [I-106]: the Emax on B2-AR (setting [3]) was 50 to 70%; on B1-AR (setting [2]), 70 to 90%. Further, the EC50 at B2-AR (CHO-K1 cells, cAMP HTRF) is 10 to 100 nM; on B1-AR (cAMP HTRF), 100 to 1000 nM.

In the case of `CCC(CC)NC[C@H](O)c1cccc2[nH]ncc12` [I-43], the Emax at B2-AR (setting [3]) and at B1-AR (setting [2]) was > 90% throughout. The EC50 on B2-AR (CHO-K1 cells, cAMP HTRF) is < 10 nM; on B1-AR (cAMP HTRF), 10 to 100 nM.

Turning to `CC(C)(CO)NC[C@H](O)c1cccc2[nH]nc(F)c12` [I-132], the Emax on B2-AR (setting [3]) and on B1-AR (setting [2]) was > 90% each time. Besides, the EC50 at B2-AR (CHO-K1 cells, cAMP HTRF) was < 10 nM; on B1-AR (cAMP HTRF), < 10 nM.

`Cn1ncc2c([C@@H](O)CNC(C)(C)C)cc(F)cc21` [I-57]: the Emax at B2-AR (setting [3]) is 50 to 70%; on B1-AR (setting [2]), 70 to 90%. Moreover, the EC50 on B2-AR (CHO-K1 cells, cAMP HTRF) is < 10 nM; on B1-AR (cAMP HTRF), 10 to 100 nM.

Turning to `CCC(C)(C)NC[C@H](O)c1cc(F)cc2[nH]ncc12` [I-51], the EC50 on B2-AR (CHO-K1 cells, cAMP HTRF) is < 10 nM; at B1-AR (cAMP HTRF) it was < 10 nM. Further, the Emax was > 90% on B2-AR (setting [1]) and 70 to 90% on B1-AR (setting [2]).

With `C[C@@H](NC[C@H](O)c1cccc2[nH]ncc12)C1CC1` [I-13], the maximal response (Emax) on B2-AR (setting [3]) and at B1-AR (setting [2]) was > 90% each time. Further, the EC50 on B2-AR (CHO-K1 cells, cAMP HTRF) was < 10 nM; on B1-AR (cAMP HTRF) it was < 10 nM.

Consider `CC(C)(NC[C@H](O)c1cccc2[nH]ncc12)C1CC1` [I-12], for which the EC50 at B2-AR (CHO-K1 cells, cAMP HTRF) was < 10 nM; at B1-AR (cAMP HTRF), < 10 nM. In addition, the maximal response (Emax) on B2-AR (setting [1]) and at B1-AR (setting [2]) was > 90% in each case.

On to `Cc1n[nH]c2cccc([C@@H](O)CNC3(C)CCC3)c12` [I-168], for which the EC50 at B2-AR (CHO-K1 cells, cAMP HTRF) is < 10 nM; on B1-AR (cAMP HTRF), 10 to 100 nM. The maximum response (Emax) at B2-AR (setting [1]) and at B1-AR (setting [2]) was 70 to 90% throughout.

For `Cc1ncccc1[C@@H](O)CNCC(C)C` [I-183], the maximum response (Emax) on B2-AR (setting [3]) was 50 to 70%; on B1-AR (setting [2]), < 50%. Besides, the EC50 on B2-AR (CHO-K1 cells, cAMP HTRF) was > 1000 nM; on B1-AR (cAMP HTRF), > 1000 nM.

As to `CCC(C)(C)NC[C@H](O)c1cccc2[nH]cc(F)c12` [I-46], the Emax on B2-AR (setting [3]) and at B1-AR (setting [2]) was > 90% in each case. The EC50 at B2-AR (CHO-K1 cells, cAMP HTRF) was < 10 nM; on B1-AR (cAMP HTRF), < 10 nM.

`Cn1ncc2c([C@@H](O)CNC(C)(C)C)cc(F)cc21` [I-84]: on B2-AR (CHO-K1 cells, cAMP HTRF), the “pEC50 [B2-AR]” value is on record as “A (A=>8)”. Also, the “Emax (% iso) (%) [B2-AR]” value at B2-AR (setting [1]) is given as “B (B=>70-90%)”. Also, the “pEC50 [B1-AR]” value at B1-AR (cAMP HTRF) was “B (B=>7-8)”. Moreover, the “Emax (% iso) (%) [B1-AR]” value at B1-AR (setting [2]) was “B (B=>70-90%)”.
